# Results taken from ChEMBL document CHEMBL6115030, “Systematic All-Hydrocarbon Stapling Analysis for Cecropin A Generates a Potent and Stable Antimicrobial Peptide” (J Med Chem, 2025).
# The source made the active and inactive calls. The calls are words filed in the database; no cut-off is given here. Bridge positions count the residues as written; N and C are the ends. Square brackets hold non-standard residues; d marks the D form. Peptide text beside a SMILES is read from it. S5 = C=CCCC[C@](C)(N)C(=O)O
# Experiments:
# Escherichia coli [1] = test: Induction of assembly related pathways in Escherichia coli assessed as change in BamA gene expression at 12.5 uM measured after 2 hrs incubation by PCR analysis; assay type: functional, organism-based
# Escherichia coli [2] = test: Induction of multiple envelope stress pathway related pathways in Escherichia coli assessed as change in WcaC gene expression at 12.5 uM measured after 2 hrs incubation by PCR analysis; assay type: functional, organism-based
# Escherichia coli [3] = test: Induction of assembly related pathways in Escherichia coli assessed as change in BamB gene expression at 12.5 uM measured after 2 hrs incubation by PCR analysis; assay type: functional, organism-based
# Escherichia coli [4] = test: Induction of outer membrane synthesis related pathways in Escherichia coli assessed as change in OmpT gene expression at 12.5 uM measured after 2 hrs incubation by PCR analysis; assay type: functional, organism-based
# Cell membrane [5] = test: Induction of Inner membrane damage in Escherichia coli assessed as increase in […] ONPG intensity at 5 uM measured after 24 hrs incubation by microplate reader based inner membrane permeability assay; assay type: subcellular
# Staphylococcus aureus = test: Antibacterial activity against Staphylococcus aureus ATCC 25923 assessed as inhibition of bacterial growth measured after 24 hrs by broth microdilution method; assay type: functional
# Escherichia coli [6] = test: Induction of multiple envelope stress pathway related pathways in Escherichia coli assessed as change in WcaB gene expression at 12.5 uM measured after 2 hrs incubation by PCR analysis; assay type: functional, organism-based
# Escherichia coli [7] = test: Induction of multiple envelope stress pathway related pathways in Escherichia coli assessed as change in WcaL gene expression at 12.5 uM measured after 2 hrs incubation by PCR analysis; assay type: functional, organism-based
# Escherichia coli [8] = test: Induction of metabolism related pathways in Escherichia coli assessed as energetic metabolism pathway mRNAs at 12.5 uM measured after 2 hrs incubation by PCR analysis; assay type: functional, organism-based
# Escherichia coli [9] = test: In vivo antibacterial activity against Escherichia coli intraperitoneally injected into C57BL/6 mouse peritonitis model assessed as reduction in bacterial load in liver at 2.5 mg/kg, ip measured after 48 hrs relative to control; assay type: functional, organism-based
# Shigella flexneri = test: Antibacterial activity against Shigella flexneri 301 assessed as inhibition of bacterial growth measured after 24 hrs by broth microdilution method; assay type: functional
# Escherichia coli [10] = test: In vivo antibacterial activity against Escherichia coli intraperitoneally injected into C57BL/6 mouse peritonitis model assessed as mouse survival at 2.5 mg/kg, ip measured after 48 hrs relative to control; assay type: functional
# Escherichia coli [11] = test: Antibacterial activity against Escherichia coli assessed as reduction in CFU at 5 uM measured upto 60 mins by Time-killing assay; assay type: functional, organism-based
# Escherichia coli [12] = test: Induction of outer membrane synthesis related pathways in Escherichia coli assessed as change in OmpG gene expression at 12.5 uM measured after 2 hrs incubation by PCR analysis; assay type: functional, organism-based
# Escherichia coli [13] = test: Induction of multiple envelope stress pathway related pathways in Escherichia coli assessed as change in FimA gene expression at 12.5 uM measured after 2 hrs incubation by PCR analysis; assay type: functional, organism-based
# Klebsiella pneumoniae = test: Antibacterial activity against Klebsiella pneumoniae ATCC 13883 assessed as inhibition of bacterial growth measured after 24 hrs by broth microdilution method; assay type: functional
# Mus musculus [14] = test: In vivo anti-inflammatory efficacy in Escherichia coli intraperitoneally injected into C57BL/6 mouse peritonitis model assessed as reduction in IL-1beta level in blood at 2.5 mg/kg, ip measured after 48 hrs by ELISA; assay type: functional, organism-based
# Escherichia coli [15] = test: In vivo antibacterial activity against Escherichia coli intraperitoneally injected into C57BL/6 mouse peritonitis model assessed as reduction in bacterial load in kidney at 2.5 mg/kg, ip measured after 48 hrs relative to control; assay type: functional, organism-based
# Escherichia coli [16] = test: In vivo antibacterial activity against Escherichia coli intraperitoneally injected into C57BL/6 mouse peritonitis model assessed as reduction in bacterial load in spleen at 2.5 mg/kg, ip measured after 48 hrs relative to control; assay type: functional, organism-based
# Escherichia coli [17] = test: Induction of LPS transport pathway related genes in Escherichia coli assessed as change in LptG gene expression at 12.5 uM measured after 2 hrs incubation by PCR analysis; assay type: functional, organism-based
# Escherichia coli [18] = test: Induction of assembly related pathways in Escherichia coli assessed as change in OmpW gene expression at 12.5 uM measured after 2 hrs incubation by PCR analysis; assay type: functional, organism-based
# Acinetobacter baumannii = test: Antibacterial activity against Pandrug-resistant Acinetobacter baumannii assessed as inhibition of bacterial growth measured after 24 hrs by broth microdilution method; assay type: functional
# [19] = Toxicity in C57BL/6 female mouse assessed as apparent inflammatory exudates ([…], neutrophiles, macrophages) in lungs at 25 mg/kg, ip measured during 14 days of study by H and E staining based analysis; assay type: organism-based; settings: in vivo, 336 h, time 14 day
# Mus musculus [20] = test: In vivo anti-inflammatory efficacy in Escherichia coli intraperitoneally injected into C57BL/6 mouse peritonitis model assessed as reduction in TNF-alpha level in blood at 2.5 mg/kg, ip measured after 48 hrs by ELISA; assay type: functional, organism-based
# Escherichia coli [21] = test: Induction of LPS transport pathway related genes in Escherichia coli assessed as change in LptB gene expression at 12.5 uM measured after 2 hrs incubation by PCR analysis; assay type: functional, organism-based
# Escherichia coli [22] = test: Induction of assembly related pathways in Escherichia coli assessed as change in BamD gene expression at 12.5 uM measured after 2 hrs incubation by PCR analysis; assay type: functional, organism-based
# [23] = Toxicity in C57BL/6 female mouse assessed as haemorrhagic point and blurred white pulp boundary in spleen at 25 mg/kg, ip measured during 14 days of study by H and E staining based analysis; assay type: organism-based; settings: in vivo, 336 h, time 14 day
# [24] = Toxicity in C57BL/6 female mouse assessed as juxtaglomerular cells and interstitial fibrous tissues in kidney at 25 mg/kg, ip measured during 14 days of study by H and E staining based analysis; assay type: organism-based; settings: in vivo, 336 h, time 14 day
# Cell membrane [25] = test: Induction of Outer membrane damage in Escherichia coli assessed as increase in NPN intensity at 5 uM measured after 24 hrs incubation by microplate reader based outer membrane permeability assay; assay type: subcellular
# [26] = Toxicity in C57BL/6 mouse assessed as increase in body weight at 25 mg/kg, ip measured during 14 days of study; assay type: organism-based; settings: in vivo, 336 h, time 14 day
# Salmonella typhimurium = test: Antibacterial activity against Salmonella typhimurium assessed as inhibition of bacterial growth measured after 24 hrs by broth microdilution method; assay type: functional, Salmonella enterica subsp. enterica serovar Typhimurium; settings: Salmonella enterica
# Pseudomonas aeruginosa [27] = test: Antibacterial activity against Pseudomonas aeruginosa PAO1 assessed as inhibition of bacterial growth measured after 24 hrs by broth microdilution method; assay type: functional
# Escherichia coli [28] = test: Induction of LPS transport pathway related genes in Escherichia coli assessed as change in LptD gene expression at 12.5 uM measured after 2 hrs incubation by PCR analysis; assay type: functional, organism-based
# Pseudomonas aeruginosa [29] = test: Antibacterial activity against Carbapenem-resistant Pseudomonas aeruginosa assessed as inhibition of bacterial growth measured after 24 hrs by broth microdilution method; assay type: functional
# [30] = Toxicity in C57BL/6 mouse assessed as death at 50 mg/kg, ip measured on day 4; assay type: organism-based; settings: in vivo, 96 h, time 4 day
# [31] = Toxicity in C57BL/6 mouse assessed as death at 25 mg/kg, ip measured during 14 days of study; assay type: organism-based; settings: in vivo, 336 h, time 14 day
# [32] = Toxicity in C57BL/6 female mouse assessed as haemorrhagic point and blurred white pulp boundary in liver at 25 mg/kg, ip measured during 14 days of study by H and E staining based analysis; assay type: organism-based; settings: in vivo, 336 h, time 14 day
smiles,measurement,setting,value
CC[C@H](C)[C@H](NC(=O)CNC(=O)[C@H](CC(=O)O)NC(=O)[C@H](CCCNC(=N)N)NC(=O)[C@@H](NC(=O)[C@H](CC(N)=O)NC(=O)[C@H](CCC(N)=O)NC(=O)CNC(=O)[C@@H](NC(=O)[C@H](CCCCN)NC(=O)[C@H](CCC(=O)O)NC(=O)[C@@H](NC(=O)[C@H](CCCCN)NC(=O)[C@H](CCCCN)NC(=O)[C@H](Cc1ccccc1)NC(=O)[C@H](CC(C)C)NC(=O)[C@H](CCCCN)NC(=O)[C@H](Cc1c[nH]c2ccccc12)NC(=O)[C@H](CCCCN)NC(C)=O)[C@@H](C)CC)C(C)C)[C@@H](C)CC)C(=O)N[C@H](C(=O)N[C@@H](CCCCN)C(=O)N[C@@H](C)C(=O)NCC(=O)N1CCC[C@H]1C(=O)N[C@@H](C)C(=O)N[C@H](C(=O)N[C@@H](C)C(=O)N[C@H](C(=O)N[C@H](C(=O)NCC(=O)N[C@@H](CCC(N)=O)C(=O)N[C@@H](C)C(=O)N[C@@]1(C)CCC/C=C\CCC[C@@](C)(C(N)=O)NC(=O)[C@H](C)NC(=O)[C@H]([C@@H](C)CC)NC(=O)[C@H](CCC(N)=O)NC1=O)C(C)C)C(C)C)C(C)C)[C@@H](C)CC (Ac-KWKLFKKIEKVGQNIRDGIIKAGPAVAVVGQA[S5]QIA[S5]-NH2; staple (Z) 33-37),Activity,Escherichia coli [1],Active
same,Activity,Escherichia coli [2],Active
same,Activity,Escherichia coli [3],Active
same,Activity,Escherichia coli [4],Active
same,Activity,Cell membrane [5],Active
same,MIC,Staphylococcus aureus,3.13 µM
same,Activity,Escherichia coli [6],Active
same,Activity,Escherichia coli [7],Active
same,Activity,Escherichia coli [8],Active
same,Activity,Escherichia coli [9],Active; Compound Showed Enhanced Bacterial Elimination Than Cec-0 And Compound Showed Comparable Bacterial Elimination To Polymyxin B
same,MIC,Shigella flexneri,1.56 µM
same,Activity,Escherichia coli [10],67%
same,Activity,Escherichia coli [11],Active
same,Activity,Escherichia coli [12],Active
same,Activity,Escherichia coli [13],Active
same,MIC,Klebsiella pneumoniae,3.13 µM
same,Activity,Mus musculus [14],Active
same,Activity,Escherichia coli [15],Active; Compound Showed Enhanced Bacterial Elimination Than Cec-0 And Compound Showed Comparable Bacterial Elimination To Polymyxin B
same,Activity,Escherichia coli [16],Active; Compound Showed Enhanced Bacterial Elimination Than Cec-0
same,Activity,Escherichia coli [17],Active
same,Activity,Escherichia coli [18],Active
same,MIC,Acinetobacter baumannii,< 0.78 µM
same,Activity,[19],Non-toxic
same,Activity,Mus musculus [20],Active
same,Activity,Escherichia coli [21],Active
same,Activity,Escherichia coli [22],Active
same,Activity,[23],Non-toxic
same,Activity,[24],Non-toxic
same,Activity,Cell membrane [25],Active
same,Activity,[26],Toxic
same,MIC,Salmonella typhimurium,3.13 µM
same,MIC,Pseudomonas aeruginosa [27],6.25 µM
same,Activity,Escherichia coli [28],Active
same,MIC,Pseudomonas aeruginosa [29],> 100 µM
same,Activity,[30],Toxic
same,Activity,[31],Non-toxic
same,Activity,[32],Non-toxic
